Results reported in patent publication US9616019B2, “Nanosuspension of a poorly soluble drug via microfluidization process” (Celgene Corporation, priority 2009, dated 2017).

Test: Particle size distribution by laser diffraction particle size analyzer
Format: physicochemical
Experimental: The particle size distribution of the resultant suspensions can be measured using any instrumentation. An example is laser diffraction using a Cilas Particle Size Analyser 1190. The images of the particles can be taken using, for example, the microscope “Olympus”. The resolution rates can be determined, for example, by a pION μDISS Profiler.
An aqueous dispersion of cyclopropyl-N-{2-[(1S)-1-(3-ethoxy-4-methoxyphenyl)-2-(methylsulfonyl)ethyl]-3-oxoisoindoline-4-yl}carboxamide up to 200 mg/ml in 0.5% HPMC E5 were able to be processed through the Microfluidizer processor. […] By processing at 27K psi for 100 passes, the mean particle size by volume was reduced from 8.0 μm to 0.39 μm, while by processing at 15K psi, the mean size was 0.91 μm. The D90 of particle size by number was 0.09 μm.
Nanosuspensions were formed by initially stirring the micronized cyclopropyl-N-{2-[(1S)-1-(3-ethoxy-4-methoxyphenyl)-2-(methylsulfonyl)ethyl]-3-oxoisoindoline-4-yl}carboxamide in aqueous excipient solutions including PVP, CMC, HPMC, PEG, PEO, Transcutol, glycerin, and/or various surfactants for wetting and solubilization, followed by passing through a high-shear microfluidizer processor. The particle size distribution of the resultant suspensions was measured by a laser diffraction particle size analyzer. The images of the particles were taken using a microscope.
Aqueous dispersions of cyclopropyl-N-{2-[(1S)-1-(3-ethoxy-4-methoxyphenyl)-2-(methylsulfonyl)ethyl]-3-oxoisoindoline-4-yl}carboxamide up to 200 mg/ml in polymeric excipients were processed with this approach. The 200 mg/mL nanosuspension was physically stable at room temperature for 2 months, based on the images and particle size analysis. The D90 of particle size by number was 0.09 μm. […] Upon dilution from 200 mg/ml to 25 mg/ml with specific surfactants, the solubility increased 40 fold over 40 minutes.

- D90 of particle size by number: 0.09 μm
- mean particle size by volume (before microfluidization): 8.0 μm
- mean particle size (optimal process pressure and time): 0.05 μm
- mean particle size by volume (processing at 15K psi): 0.91 μm
- mean particle size (processing at 15K psi (Example 4)): 0.08 μm
- mean particle size by volume (processing at 27K psi for 100 passes, 0.5% HPMC E5): 0.39 μm
- mean particle size (processing at 27K psi for 130 passes): 0.05 µm
Structure (SMILES): CCOc1cc([C@@H](CS(C)(=O)=O)N2Cc3cccc(NC(=O)C4CC4)c3C2=O)ccc1OC [cyclopropyl-N-{2-[(1S)-1-(3-ethoxy-4-methoxyphenyl)-2-(methylsulfonyl)ethyl]-3-oxoisoindoline-4-yl}carboxamide]
